The source of these data is patent publication US9241993B2, “Inhibitors of branched-chain-aminotransferase-1 (BCAT1) for the treatment of brain tumors” (Deutsches Krebsforschungszentrum, priority 2011, dated 2016).

Type in all cases: cell-based, human
For experiment [1], the system named is BCAT1 expression. As to the kind of experiment: BCAT1 RNA and protein expression (qRT-PCR, Western blot) in glioma cell lines. To be noted: increasing concentration of dimethyl-alpha-KG in the culture medium (5 mM or 10 mM). The procedure:
Total RNA was extracted using the AllPrep DNA/RNA/Protein Mini Kit (Qiagen) according to the manufacturer's instructions. FirstChoice® Human Brain Reference Total RNA from Ambion served as normal brain RNA pool (n=23 donors). Total RNA (500 ng) was reverse-transcribed using random primers and superscript II (Invitrogen, Karlsruhe, Germany) according to the manufacturer's instructions. Each complimentary DNA sample was analysed in triplicate with the Applied Biosystems Prism 7900HT Fast Real-Time PCR System (Applied Biosystems, Foster City, Calif., USA) using Absolute SYBR Green ROX Mix (ABgene, Epsom, UK). The relative amount of specific mRNA was normalised to ARF, B2M and TBP.
All experiments involving the use of human tissues are carries out in line with the guidelines of the institutional review board of the Medical Faculty at Heinrich Heine University Dusseldorf. Fresh frozen human tumor tissue samples and a non-neoplastic brain tissue sample were lysed in guanidine isothiocyanate solution (4M) using an ULTRA-TURRAX (IKA, Staufen, Germany) and subjected to CsCl-ultracentrifugation. […]
Infection of glioma cells with virus at an M.O.I. of 2 was carried out in the presence of 8 μg/ml of polybrene (Chemicon, Billerica, Mass., USA). […] Quantification of BCAT1 and IDH1 knockdown was assessed by quantitative real-time PCR and Western blot. […]
A general note: Real-time PCR tracks product formation cycle by cycle.

Experiment [2] concerns U-87MG cells. Put plainly: 1H-NMR spectroscopy of cell extracts, intracellular BCAA levels. Particulars: 20 mM gabapentin for 20 hours vs control. The procedure: (§1) (i) Treatment with dimethyl-α-ketoglutarate and Gabapentin 5×10^4 cells/well were seeded in 24-well plates in a total volume of 500 μl cell culture medium. The medium was removed 16 hours after seeding the cells, and replaced with 500 μl medium containing 5 mM or 10 mM dimethyl-α-ketoglutarate (Dimethyl 2-oxoglutarate; Sigma-Aldrich) or 5 mM, 10 mM or 20 mM gabapentin ([…]; Sigma-Aldrich). Corresponding volumes of 200 mM HEPES buffer (pH 7.4) were added to the respective control wells.
(§2) Cells were harvested by trypsinization, washed once with ice-cold PBS, and the cell pellet was frozen at −80° C. Typically 1×10^8 harvested cells were subjected to perchloric acid extraction followed by KOH neutralization according to published protocols^50. Briefly, 2 mL of ice-cold 1 N HClO4 were added to a frozen pellet of harvested cells. The pellet was disrupted using a Teflon pestle and a glass homogeniser. 1 mL of ice-cold water was added to the lysate, vortexed for 90 s and centrifuged at 10000×g for 10 min at 4° C. The pellet was re-extracted and the supernatants were combined. The extract was neutralised with KOH and the pH was adjusted to 6.5-7.0 Precipitated KClO4 was pelleted at 25000×g for 20 min and the supernatant was lyophilised.
(§3) The lyophilised extract residues were dissolved in 0.5 ml of a D2O buffer (99.9% D) containing 30 mM sodium phosphate and 0.1 mM sodium azide (pH 7.02). For quantitative analysis a reference capillary (1.5 mm OD, 0.99 mm ID) was filled with a solution of 11 mM trimethylsilyl-2,2,3,3-tetradeuteropropanoic acid (TSP, sodium salt) in the D2O buffer described above. Subsequently, the capillary was sealed in the flame of a Bunsen burner. A calibration solution was prepared by placing weighed amounts of glucose and citric acid in the D2O buffer to give the calculated concentrations of 10.49 mM glucose and 4.95 […]. ^1H-NMR spectra of the calibration solution+capillary were acquired at 600 MHz (Avance AV-600, Bruker BioSpin GmbH) using a standard 5-mm NMR tube and a triple-resonance inverse probe under the same conditions to be used for the extracts (20° C., presaturation of residual HDO signal, repetition time TR=7 s, 30° flip angle). […] Cell extracts were measured with the calibrated reference capillary inserted (512 transients in 1 hour), and the ^1H-NMR signals for the branched-chain amino acids, various metabolites, and the TSP reference were integrated. The TSP integral was defined as 4.60 mM so that the metabolite signal integrals gave directly the metabolite concentrations in mM (μmol/ml) for the 0.5 ml volumes used.

Experiment [3] relates to U-373MG cells. The experiment is described as above. To be noted: 20 mM gabapentin for 20 hours vs control. The procedure: as §1, §2, §3
For experiment [4], the system named is HS683. As to the kind of experiment: Cell-cycle analysis (propidium iodide, flow cytometry), sub-G1 fraction. Particulars: HS683, 20 mM, 20 hours after treatment. The procedure:
(§4) Cell-cycle analysis was performed 20 hours after treatment with gabapentin and 6 days after lentiviral transduction. Nicoletti buffer (0.1% sodium citrate, pH7.4, 0.05% Triton X-100, 50 μg propidium iodide) was added to the wells containing both dead and living cells. After 4 hours in the dark at 4° C., DNA content was analysed by flow cytometry using FACS Canto II (BD Biosciences, San Jose, Calif., USA). FACS Diva software was used to quantify the distribution of cells in each cell-cycle phase: sub-G1 (dead cells), G1, S, and G2/M. For investigation of apoptotic activity after lentivira knockdown NCH421k cells were incubated with annexin V-P (Phycoerythrin) and 7-AAD (7-aminoactinomycin D, BD Biosciences) for 15 minutes in the dark, immediately followed by flow cytometry.

The subject of experiment [5] is U87-MG. The experiment is described as above. To be noted: 20 mM, 20 hours after treatment. The procedure: as §4
The test system of experiment [6] is U373-MG. Described as above. Particulars: 20 mM, 20 hours after treatment. The procedure: as §4
The test system of experiment [7] is glioma cells. Put plainly: Glutamate quantification in supernatant of gabapentin-treated cells. To be noted: 20 mM, 6 and 12 hours after start of treatment. The procedure: as §1
Glutamate concentration in the supernatant of cells treated with gabapentin was determined using the glutamine/glutamate determination Kit (GLN-1; Sigma-Aldrich) according to the manufacturer's instructions. The reaction volumes were scaled down to 100 μl total volume and absorbance was measured in triplicate in a microplate (Corning° 96 Well Clear Flat Bottom UV-Transparent Microplate) using a Tecan Infinite M200 plate reader (Tecan, Austria). Data were normalised to the number of cells per well.

The subject of experiment [8] is glioma cell lines. As to the kind of experiment: Cell-cycle analysis, G1 phase. Particulars: gabapentin treatment, 20 hours. The procedure:
as §4

Experiment [9] has as its system glioblastoma cell lines U87-MG, HS683 and U373-MG. Put plainly: Click-iT EdU cell proliferation assay after gabapentin treatment. Particulars: concentration-dependent. The procedure:
as §1
To assess the proliferation of glioma cells after treatment with gabapentin or after lentiviral knockdown, the Click-iT® EdU cell proliferation assay (Invitrogen, Karlsruhe, Germany) was used following the manufacturer's instructions. The cells were incubated with 10 μM of the nucleoside analog EdU (5-ethynyl-2′deoxyuridine) for 16 hours. Quantification of cells that incorporated EdU was performed using FACS Canto II (BD Biosciences).
The human glioblastoma cell lines U87-MG (HTB-14), HS683 (HTB-138) and U373-MG (HTB-17; LGC Standards, Teddington TW11 0LY U.K.) were cultured in Dulbecco's Minimal Essential Medium supplemented with 10% fetal calf serum and 1% penicillin/streptomycin-mix. 5×10^4 cells/well were seeded in 24 well plates in a total volume of 500 μl cell culture medium. […]

Regarding `COC(=O)CCC(=O)C(=O)OC` [dimethyl-alpha-KG, Dimethyl 2-oxoglutarate], the BCAT1 expression result in [1] is given as “upregulated”.
For the compound `NCC1(CC(=O)O)CCCCC1` [Gabapentin, 1-(aminomethyl) cyclohexaneacetic acid], the “increase of isoleucine (Ile) level, factor” value turned out to be 1.19 in experiment [2] and 2.32 in [3]. Further, the entries for the “increase of leucine (Leu) level, factor” value in experiment [2] and in experiment [3] were 1.38 and 2.18, respectively. Moreover, the “increase of valine (Val) level, factor” value in experiment [2] came to 1.09; in experiment [3], 1.83. The entries for the “Average sub-G1” value in [4], in experiment [5] and in experiment [6] were 10.1%, 2.4% and 2.8%, respectively. For the same compound, the Glutamate release entry in experiment [7] was “significantly reduced”. Besides, in experiment [8], the “cell cycle effect (fraction of cells in G1-phase)” value was “partial G1-arrest”. The “reduction of cell proliferation” value in [9] (5, 10 and 20 mM, all cell lines, vs mock treated cells (Example 2)) is listed as 20-55%. Moreover, the “reduction of proliferation, estimated based on EdU-incorporation” value in experiment [9] (20 hours (Example 9, FIG. 6a)) is reported as “up to 56%”.
